How the values were obtained:
[1] = system: thrombin-induced aggregation in washed rabbit platelets (WRPs); assay: Inhibition of thrombin-induced aggregation in washed rabbit platelets; type: cell-based; details: for IC50: washed rabbit platelets, mean ± SD, read-out: IC50 (μM) towards Thrombin in WRPs
Method: The biological experiments of PAF-induced platelet aggregation as well as the evaluation of the inhibitory effect of its synthetic compounds were performed according to thoroughly described protocols. The inhibitory effect of the starting materials (pqx = 2-(2′-pyridyl)quinoxaline, CrCl3 × 3H2O, MnCl2 × 4H2O, FeCl2 × 4H2O, CoCl2 × 6H2O, NiCl2 × 6H2O, CuCl2 × 2H2O, ZnCl2) and of the coordination compounds 1–7, towards PAF and thrombin related biological activities (aggregation experiments) in washed rabbit platelets (WRPs) was carried out according to previously described protocols. Briefly, in order to obtain the washed rabbit platelets (WRPs), platelet-rich plasma was washed on Ficoll–Paque cushions and adjusted to […] platelets/mL of Tyrode’s buffer, pH 7.2. The dilution of PAF was prepared using pyrogen-free 0.15 M NaCl containing 2.5 mg/mL of crystallized bovine serum albumin, required for dispersion of PAF. The compounds under investigation were firstly dissolved in the appropriate solvent that is: DMSO for pqx (0.010 M), H2O for CrCl3 × 3H2O (0.016 M), H2O for MnCl2 × 4H2O (0.004 M), DMSO-EtOH (4/1, v/v)) for FeCl2 × 4H2O (0.014 M), H2O for CoCl2 × 6H2O (0.010 M), H2O for NiCl2 × 6H2O (0.010 M), H2O for CuCl2 × 2H2O (0.008 M), H2O for ZnCl2 (0.013 M), DMSO for 1 (0.017 M), DMSO for 2 (0.010 M0, DMSO for 3 (0.004 M), DMSO for 4 (0.002 M), DMSO for 5 (0.003 M), DMSO-EtOH-H2O (25/1/1, v/v)) for 6 (0.006 M), DMSO for 7 (0.002 M) and aliquots of these solutions were then added in solutions (2.5 mg BSA/mL) of saline.
The experiment on the inhibitory effect of each compound of interest against the washed rabbit platelets (WRPs) aggregation was carried out as per the already described method. The platelets were from male New Zealand white rabbits (about 20), individually housed in stainless steel cages in an air-conditioned room (19 ± 1 °C, 55 ± 5% humidity on a 12/12 h artificial light/dark cycle). Blood samples were drawn from the main ear artery. Microliters of PAF in a final concentration of about 10^–10 M were added to the cuvette of the aggregometer, and the height of the platelet aggregation was monitored. The platelet aggregation induced by PAF, or thrombin was measured before (considered as 0% inhibition) and after the addition of various concentrations of the examined sample, creating a linear curve of percentage inhibition (ranging from 0 to 100%) versus different concentrations of the sample. From this curve, the concentration of the sample that inhibited 50% PAF-induced aggregation was calculated, and this value was defined as IC50 (Inhibitory concentration for 50% Inhibition). Dithiothreitol-insensitive PAF choline phosphotransferase, lyso-PAF:acetyl-CoA acetyltransferase and PAF-acetylhydrolase activity assays were performed on the homogenates of rabbit leukocytes while the activity of lipoprotein-associated phospholipase A2 was assessed on plasma as previously described. The experiments were performed in a model 400 vs. aggregometer of Chrono-Log (Havertown, PA, USA) coupled to a Chrono-Log recorder at 37 °C with constant stirring at 1200 rpm. The separation of platelets was performed with centrifugations in a 3L-R Heraeus Labofuge (Hvanau, Germany), a 400R Heraeus Labofuge and an RC-5B Sorvall (Newtown, CT, USA) refrigerated super speed centrifuge. Bovine serum albumin (BSA), PAF and analytical solvents for the biological assays were purchased from Sigma. Standard active thrombin was purchased from Sigma, St. Lewis, MO, USA. The measurements were performed in duplicates for each sample concentration in three different WRP preparations, in order to ensure reproducibility. All experiments were also followed by appropriate control tests of the solvent used (saline solution of BSA, DMSO aliquots in a saline solution of BSA-2.5 mg BSA/mL saline- or just in saline), in WRPs. […]

[2] = system: HEK293T (human embryonic kidney cells); assay: MTT cell viability assay, HEK293T; type: cell-based; details: for IC50: 48 h exposure, mean ± SD; for cytotoxic effect in HEK293T: 48 h
Method: In this report, cell viability tests were conducted in HEK293T and HeLa cancer cells by means of the colorimetric 3-(4,5-dimethylthiazol-2-yl)-2,5-diphenyl tetrazolium bromide (MTT) assay after exposure for 48 h. A HeLa cancer cell line was selected since it is widely used in cytotoxicity studies. For all complexes, a 10 mM stock solution in DMSO (H2O for cisplatin) was prepared and diluted appropriately to reach the final concentration reported in the Materials and Methods. The non-cancerous HEK293T cell line was used for comparison. The IC50 values of the first-row metal complexes, the pqx ligand and cisplatin, presented herein were calculated using a dose-response model, which was obtained from sigmoidal fitting of dose-response curves.
The HEK293T cell line (immortalized human embryonic kidney cells) was obtained from the Biomedical Research Foundation Academy of Athens (BRFAA), Athens, Greece and the HeLa cell line (cervical cancer cells) was obtained from the National Centre For Scientific Research Demokritos (NCSR Demokritos), Athens, Greece.
Pqx metal complexes were diluted in stock solutions of 10 mM in dimethyl sulfoxide (DMSO). A similar concentration of cisplatin dissolved in H2O was used. HEK293T and HeLa cells were cultured in Dulbecco’s modified Eagle’s medium (DMEM) with high glucose (Biosera, Nuaille, France) supplemented with 10% fetal bovine serum at 37 °C and 5% CO2. Cells were seeded in sterile tissue culture 96-well plates (SPL Life Science, Pochon, Republic of Korea) at a density of 3000 cells per well. After 24 h, the medium was removed and replaced with fresh media containing various concentrations (0.01 μΜ, 0.1 μΜ, 1 μΜ, 10 μΜ, 25 μΜ, 40 μΜ, 55 μΜ, 70 μΜ, 85 μΜ and 100 μΜ) of the compounds to be tested and was further incubated for 48 h at 37 °C. Dimethyl sulfoxide (DMSO) was used as a vehicle at ≤1%. To measure cytotoxicity, a culture medium containing the compounds (or DMSO) was removed, and 100 μL of 0.5 mg/mL MTT reagent (Applichem, Darmstadt, Germany) diluted in DMEM was added to the cells for 3 h at 37 °C. After 3 h incubation in identical conditions, MTT was removed and 200 μL of DMSO was added. Absorbance values of formazan were measured at 540 nm using a BioTek Synergy H1 microplate reader (Agilent, Santa Clara, CA, USA). All compounds were tested in triplicate. The results were statistically analyzed using the nonlinear regression by GraphPad PRISM (Version 9).

| Compound | IC50 [1] [µM] | IC50 [2] [µM] | fold decrease of thrombin IC50 relative to the metal precursor ([1]; complex versus its metal precursor) | cytotoxic effect in HEK293T [2] |
| --- | --- | --- | --- | --- |
| CS(C)=O.[Cl][Cu][Cl].c1ccc(-c2cnc3ccccc3n2)nc1 [Complex 3, [Cu(pqx)Cl2(DMSO)]] | 3.1 ± 0.4 | 2.1 ± 0.52 |  |  |
| [Cl][Zn][Cl].c1ccc(-c2cnc3ccccc3n2)nc1 [Complex 4, [Zn(pqx)Cl2]] | 3.5 ± 0.3 | 94.9 ± 23.2 | ~ 12 fold | negligible cytotoxic effects |
| [Co(pqx)Cl2(DMF)] [Complex 2] | 8.9 ± 1.3 | 67 ± 12.6 |  |  |
| [Fe(pqx)Cl2]2 [Complex 6] | 0.46 ± 0.03 | 65.8 ± 13.2 |  |  |
| [Mn(pqx)(H2O)2Cl2]2 [Complex 5] | 14 ± 2.1 | 28.8 ± 6.16 |  |  |
| [Ni(pqx)Cl2]2 [Complex 7] | 5.6 ± 0.34 | 25.5 ± 8.61 |  |  |
| mer-[Cr(pqx)Cl3(H2O)] [Complex 1] | 54.6 ± 10.4 | 99 ± 6.16 |  | negligible cytotoxic effects |

Source: PMC10574351, “First-Row Transition Metal Complexes Incorporating the 2-(2′-pyridyl)quinoxaline Ligand (pqx), as Potent Inflammatory Mediators: Cytotoxic Properties and Biological Activities against the Platelet-Activating Factor (PAF) and Thrombin” (Molecules, 2023)
